Each structure is given as a SMILES string. Like-named read-outs stand apart in the source and are kept apart here.

Experiment [1] concerns tomato verticullium wilt fungus (Verticillium dahliae). Nature of the experiment: Tomato verticillium wilt control test. Conditions: submersion 12 hr, 20 ppm in terms of cerebroside B, 21st day. Format: in vivo.
In experiment [2] the test system is Brown spot fungus (Cochliobolus miyabeanus). Nature of the experiment: Rice Brown spot control test. Format: in vivo. The note with it: same treatment as Example 3 (10 ppm in terms of cerebroside B), counted two days after spray inoculation.
A further experiment deals with rice blast (leaf blast). Format: in vivo, Magnaporthe grisea. Conditions: rice (Koshihikari) field, spray 120 L/10 are on 44th and 51st days after transplantation; E and F 20 ppm in terms of cerebroside B, F and G with Mylinow spreader, G 500 ppm fthalide; leaf blast one month after initial application.
The test system of experiment [3] is rice blast fungus (Magnaporthe grisea, race: 007). Format: in vivo.
For experiment [4], the system named is sweet potato dead arm fungus (Fusarium oxysporum). Nature of the experiment: Sweet potato stem rot control test. The note with it: sweet potato (Benikomachi) roots submerged 30 min, 20 ppm in terms of cerebroside B; disease development of roots 26 days after transplantation.
Method: The root parts of seedling sweet potatoes (variety: Benikomachi) infected with sweet potato dead arm fungus (Fusarium oxysporum) were submerged in each sample solution for 30 min before planting in a field. Individual plots were treated by the following sample liquids. Experimental plot (E) was treated with a liquid (concentration: 20 ppm in terms of cerebroside B) prepared by diluting ethanol extract concentrate A prepared in Example 1 by 150 times. Comparison plot (H) was treated with a liquid having a cerebroside B concentration of 20 ppm. The number of plants per plot was 20, and one plot consisted of four blocks which were provided at intervals of 60 cm. In this state, the plants were transplanted in the field.
The percentage disease development of roots was investigated 26 days after the transplantation, and the protective value was calculated from the average percentage disease development of roots.
Experiment [5] deals with lettuce root rot fungus (Fusarium oxysporum f. sp. lactucae race SB1-1). Nature of the experiment: Lettuce root rot control test. Conditions: submersion treatment, 20 ppm cerebroside B solution (H). It counts as in vivo.

For `CCCCCCCCCCCCCC[C@@H](O)C(=O)N[C@@H](CO[C@@H]1O[C@H](CO)[C@@H](O)[C@H](O)[C@H]1O)[C@H](O)/C=C/CC/C=C(\C)CCCCCCCCC` [cerebroside B, (4E,8E)-N-D-2′-hydroxypalmitoyl-1-O-β-D-glucopyranosyl-9-methyl-4,8-sphingadienine], the Protective value in experiment [1] is on record as 60; in experiment [2], 87.3; in the experiment with rice blast (leaf blast), 93; in experiment [3] (Example 4, 10 ppm in terms of cerebroside B, 2 ml per pot to foliage, plot B with 0.1% Tween 20 as spreader), 87.6; in experiment [3] (rice (Akitakomachi), foliar application 2 ml per pot, diluted to 10 ppm in terms of cerebroside B, inoculation 3 days after treatment, lesions counted 5 days after inoculation), 90; in experiment [4] it was 70. Besides, the Protective value in experiment [5] (28th day) is 78. In addition, the “Number of lesions (average number of lesions per leaf)” value in experiment [2] (control plot 10.2) is given as 1.3; in experiment [3] (Example 4, 10 ppm in terms of cerebroside B, 2 ml per pot to foliage, plot B with 0.1% Tween 20 as spreader, control plot 18.6) it was 2.3. For the same molecule, the “Raw weight ratio on ground part” value in experiment [5] (control plot = 100) is recorded as 231.

For the origin of these results see patent US7316989B2 (priority 2001, dated 2008).
